Assay results from patent US9205073B2, “Method for treating virus infection using derivative of aniline” (CHINA MEDICAL UNIVERSITY, priority 2014, dated 2015).

Legend:
DEN2 = experiment: Dengue virus replication, DEN2 NS1 antigen-capture ELISA in Huh7 cells; format: cell-based, dengue virus type 2; conditions: M.O.I.=5, 48 hours, compound 10 μM
Description: Huh7 cells were cultured in a 24-well culture plate with an initial density of 3×10^4 per well, and with 1 ml of 2% FBS-containing MEM medium per well. The cells were incubated in an incubator (37° C., 5% CO2) overnight. The medium was removed until the cells adhered to the plate. Then, 1 ml of fresh 2% FBS-containing MEM medium was simultaneously added into each well of the culture plate. The cells were infected with DEN2 virus strain (M.O.I.=5). Different concentrations of compound 1 (the final concentrations were 0, 10, 50, 100 and 150 μM, respectively) were added into different wells. The culture plate was placed into an incubator (37° C., 5% CO2) and maintained for 48 hours. The supernatant of viral medium was collected.
The above obtained supernatant was analyzed by an antigen-capture enzyme-linked immunosorbent assay (ELASA) to quantitate the DEN2 NSI protein level in the viral medium. First, a NS1 antibody was added into each well of a 96-well micro-reaction plate (200 μl/well) and the reaction was maintained at 4° C. overnight. Each well was washed with PBST 3 times (200 μl/time). A 1% BSA-containing blocking buffer (300 μl) was added into each well. […] The reading value of DEN NS1 protein amount in each supernatant was determined by examining the absorbances at a wavelength of 450 nm to evaluate DEN2 replication.

[1] = MTT assay, cell survival / CC50 in RD cells; format: cell-based; conditions: human, read-out: concentration of 50% cytotoxicity (CC50)
Description: (§1) In this example, 3-(4,5-dimethylthiazol-2-yl)-2,5-diphenyl tetrazolium bromide (MTT) was used to determine if the survival rate of BHK-21 cells, TE671cells and RD cells would be influenced when being treated with different concentrations of compound 1 prepared in Example 1. The concentration of 50% cytotoxicity (CC50) of compound 1 in BHK-21 cells, TE671cells and RD cells was also calculated.
(§2) MTT is a water-soluble tetrazolium salt which can react in the mitochondrial respiratory chain in living cells to metabolize and reduce the tetrazolium bromide shown in the structure of MTT and to form an water-insoluble purple crystal formazan under the reaction of succinate dehydrogenase (SDH) and cytochrome c (cyt c). The amount of the produced crystal is directly proportional to the number of living cells (because the SDH will disappear from dead cells, and thus, the MTT cannot be reduced). Furthermore, a mitochondrium is an organelle in cells that is most sensitive to the environment, and thus, the MTT assay can serve as a marker for the survival rate of cells treated by the drug.
(§3) BHK-21 cells, TE671cells and RD cells were cultured in a 96-well culture plate, respectively, with an initial density of 3×10^3 per well, and with 100 μl of 2% FBS-containing MEM medium per well. […] The absorbances of the samples were measured by ELISA at a wavelength of 570/630 nm.

JEV T1P1 = experiment: Cytopathic effect test, JEV T1P1-infected TE671 cells; format: cell-based, Japanese encephalitis virus
Description: BHK-21 cells and/or TE671cells were separately cultured in a 24-well culture plate, with an initial density of 3×10^4 per well, and with 1 ml of 2% FBS-containing MEM medium per well. The cells were incubated in an incubator (37° C., 5% CO2) overnight, and the medium was removed until the cells adhered to the plate. Then, fresh 2% FBS-containing MEM medium was simultaneously added into each well of the culture plate. The cells were infected with a JEV T1P1 virus strain, wherein the amount of JEV T1P1 used to infect BHK-21 cells was a multiplicity of infection (M.O.I.)=0.1, and the amount of JEV T1P1 used to infect TE671 cells was M.O.I.=0.05. Different concentrations of compound 1 (final concentrations were 0, 2.5, 25 and 125 μM, respectively) were added into different wells. The culture plate was placed into an incubator (37° C., 5% CO2) and maintained therein.
When BHK-21 cells were infected with JEV T1P1 virus strain for 48 and 72 hours as indicated in the above experiment (1), the cytopathic effect was observed by photography, while the cytopathic effect of TE671 cells was observed by photography when TE671 cells were infected with the JEV T1P1 virus strain for 36 and 48 hours. In addition, 200 μl culture medium supernatant of both cells was collected from each time point (i.e., 48 and 72 hours), thereby, providing the use for a viral plaque test in Example 4.

EV71 = experiment: Enterovirus infection-induced cytopathic effect in RD cells; format: cell-based, enterovirus type 71; conditions: infected 36 hours, M.O.I.=0.1, compound 125 μM
Description: RD cells were cultured in a 24-well culture plate at an initial density of 3×10^4 per well with 1 ml of 2% FBS-containing MEM medium per well. The cells were incubated in an incubator (37° C., 5% CO2) overnight. The medium was removed, and then 1 ml of fresh 2% FBS-containing MEM medium was simultaneously added into each well. The RD cells were infected with EV71 virus strain (M.O.I.=0.1). Different concentrations of compound 1 (final concentrations were 0, 2.5, 25 and 125 μM) were added into different wells. The RD cells were incubated in an incubator (37° C., 5% CO2) for 36 hours, and then their morphology was observed by photography.

[2] = MTT assay, cell survival / CC50 in BHK-21 cells; format: cell-based; conditions: hamster, read-out: concentration of 50% cytotoxicity (CC50)
Description: as §1, §2, §3

Structure (SMILES): CCOC(=O)C1=C(Nc2cc(C)cc(C)c2)OCC1=O [Compound 1, ethyl 2-(3′,5′-dimethylanilino)-4-oxo-4,5-dihydrofuran-3-carboxylate]
- level of DEN2 NS1 protein (DEN2): reduced
- CC50 at 48 h [1]: 222 µM
- JEV T1P1-induced cytopathic effect (JEV T1P1; infected 36 hours, M.O.I.=0.05, compound 25 μM simultaneously): inhibited
- JEV T1P1-induced cytopathic effect (JEV T1P1; infected 48 hours, M.O.I.=0.05, compound 25 μM): inhibited
- EV71-induced cytopathic effect (EV71): effectively inhibited
- CC50 at 48 h [2]: > 500 µM
